Test results taken from the supplement of paper PMC10307832.

Columns and labels:
Assay in all cases: relative viability (nuclei count vs DMSO), 5 days (fraction); higher = more cells survive
RAF265 + Lapatinib = compound: Cn1c(Nc2ccc(C(F)(F)F)cc2)nc2cc(Oc3ccnc(-c4ncc(C(F)(F)F)[nH]4)c3)ccc21 [RAF265] + CS(=O)(=O)CCNCc1ccc(-c2ccc3ncnc(Nc4ccc(OCc5cccc(F)c5)c(Cl)c4)c3c2)o1 [Lapatinib] (partner 2 µM)
Outline: (§1)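 Each reported value is a median over duplicate plates. It expresses relative viability: treated-well nuclei count divided by vehicle-well nuclei count. Lung cancer cell lines in 1536-well plates were dosed by pin tool a day after seeding, alone with one drug or with a fixed anchor-drug dose plus five library-drug doses (not always all listed) in √10 steps, and nuclei were counted after 5 days.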

IPA-3 + Decitabine = compound: C1=CC=C2C(=C1)C=CC(=C2SSC3=C(C=CC4=CC=CC=C43)O)O [IPA-3] + Nc1ncn([C@H]2C[C@H](O)[C@@H](CO)O2)c(=O)n1 [Decitabine] (partner 2 µM)
Outline: as §1

Doramapimod + Alpelisib = compound: Cc1ccc(-n2nc(C(C)(C)C)cc2NC(=O)Nc2ccc(OCCN3CCOCC3)c3ccccc23)cc1 [Doramapimod] + Cc1nc(NC(=O)N2CCC[C@H]2C(N)=O)sc1-c1ccnc(C(C)(C)C(F)(F)F)c1 [Alpelisib] (partner 2 µM)
Outline: as §1

IPA-3 + Phenformin = compound: C1=CC=C2C(=C1)C=CC(=C2SSC3=C(C=CC4=CC=CC=C43)O)O [IPA-3] + N=C(N)NC(=N)NCCc1ccccc1 [Phenformin] (partner 250 µM)
Outline: as §1

Row | Cell Line | relative viability (RAF265 + Lapatinib; first compound 0.01 µM) | relative viability (RAF265 + Lapatinib; first compound 0.03162 µM) | relative viability (RAF265 + Lapatinib; first compound 0.1 µM) | relative viability (RAF265 + Lapatinib; first compound 0.3162 µM) | relative viability (RAF265 + Lapatinib; first compound 1 µM) | relative viability (IPA-3 + Decitabine; first compound 0.2 µM) | relative viability (IPA-3 + Decitabine; first compound 0.6325 µM) | relative viability (IPA-3 + Decitabine; first compound 2 µM) | relative viability (IPA-3 + Decitabine; first compound 6.325 µM) | relative viability (IPA-3 + Decitabine; first compound 20 µM) | relative viability (Doramapimod + Alpelisib; first compound 0.02 µM) | relative viability (Doramapimod + Alpelisib; first compound 0.06325 µM) | relative viability (Doramapimod + Alpelisib; first compound 0.2 µM) | relative viability (Doramapimod + Alpelisib; first compound 0.6325 µM) | relative viability (Doramapimod + Alpelisib; first compound 2 µM) | relative viability (IPA-3 + Phenformin; first compound 0.2 µM) | relative viability (IPA-3 + Phenformin; first compound 0.6325 µM) | relative viability (IPA-3 + Phenformin; first compound 2 µM) | relative viability (IPA-3 + Phenformin; first compound 6.325 µM) | relative viability (IPA-3 + Phenformin; first compound 20 µM)
1 | PC-3 [JPC-3] | 0.423 | 0.471 | 0.475 | 0.38 | 0.36 | 0.849 | 0.837 | 0.813 | 0.779 | 0.855 | 1.15 | 1.01 | 1.09 | 1.11 | 0.978 | 0.462 | 0.47 | 0.495 | 0.499 | 0.489
2 | NCI-H1792 | 0.928 | 0.843 | 0.946 | 0.913 | 0.593 | 0.72 | 0.46 | – | 0.492 | 0.568 | 0.606 | 0.658 | 0.578 | 0.713 | 0.521 | 0.371 | 0.44 | – | – | 0.408
3 | NCI-H596 | 1.09 | 1.09 | 1.11 | 0.897 | 0.743 | 1.09 | 0.984 | 1.06 | 0.963 | 1.08 | 0.486 | 0.502 | 0.469 | 0.529 | 0.431 | 0.906 | 0.829 | 0.668 | 0.817 | 0.787
4 | RERF-LC-KJ | 0.837 | 0.776 | 0.827 | 0.784 | 0.679 | 0.896 | 0.639 | 0.701 | 0.704 | 0.689 | 0.857 | 0.865 | 0.765 | 1.01 | 0.867 | 0.5 | 0.409 | 0.509 | 0.441 | 0.462
5 | NCI-H322M | 0.579 | 0.529 | 0.481 | 0.342 | 0.258 | 0.679 | 0.654 | 0.749 | 0.663 | 0.718 | 0.774 | 0.734 | 0.785 | 0.801 | 0.933 | 0.821 | 0.749 | 0.835 | 0.89 | 0.96
6 | COR-L 105 | 0.341 | 0.376 | 0.383 | 0.342 | 0.322 | 0.652 | 0.609 | 0.657 | 0.66 | 0.649 | 0.844 | 1.07 | 0.983 | 1 | 0.963 | 0.634 | 0.445 | 0.49 | 0.418 | 0.55
7 | NCI-H1993 | 0.789 | 0.833 | 0.995 | 0.908 | 0.967 | 0.611 | 0.576 | 0.643 | 0.547 | 0.615 | 0.765 | 0.617 | 0.707 | 0.626 | 0.664 | 0.467 | 0.515 | 0.538 | 0.547 | 0.514
8 | NCI-H1437 | 0.897 | 0.776 | 0.77 | 0.784 | 0.78 | 0.601 | 0.515 | 0.543 | 0.596 | 0.581 | 0.904 | 1.01 | 0.915 | 0.926 | 0.965 | 0.41 | 0.294 | 0.328 | 0.394 | 0.304
9 | NCI-H838 | 1.02 | 0.927 | 0.972 | 0.971 | 0.885 | 0.579 | 0.444 | 0.456 | 0.398 | 0.443 | 0.973 | 0.953 | 1 | 1.09 | 0.971 | 0.857 | 0.576 | 0.524 | 0.517 | 0.666
10 | EBC-1 | 0.209 | 0.218 | 0.232 | 0.284 | 0.247 | – | – | – | – | – | 0.804 | 0.792 | 0.785 | 0.933 | 0.675 | – | – | – | – | –
11 | NCI-H1650 | 0.844 | 0.749 | 0.874 | 0.325 | 0.637 | 0.44 | 0.396 | 0.386 | 0.349 | 0.374 | – | – | – | – | – | 0.564 | 0.346 | 0.424 | 0.512 | 0.364
12 | NCI-H1563 | 1.01 | 0.885 | 0.992 | 0.815 | 0.737 | – | – | – | – | – | 0.859 | 0.912 | 0.893 | 1 | 0.802 | 0.703 | 0.644 | 0.655 | 0.727 | 0.735
13 | SW 900 | – | – | – | – | – | 0.501 | 0.453 | 0.49 | 0.415 | 0.476 | – | – | – | – | – | 0.783 | 0.575 | 0.556 | 0.784 | 0.677
14 | NCI-H1299 | 0.926 | 0.918 | 0.955 | 0.69 | 0.742 | – | – | – | – | – | 1.12 | 1.13 | 1.1 | 1.1 | 1.01 | – | – | – | – | –
15 | NCI-H1623 | – | – | – | – | – | – | – | – | – | – | – | – | – | – | – | 0.605 | 0.583 | 0.618 | 0.563 | 0.655
16 | NCI-H1703 | 1.07 | 0.825 | 1.03 | 0.613 | 0.386 | – | – | – | – | – | 0.363 | 0.336 | 0.323 | 0.393 | 0.278 | – | – | – | – | –
17 | NCI-H2342 | – | – | – | – | – | 0.772 | 0.75 | 0.737 | 0.798 | 0.839 | – | – | – | – | – | 0.629 | 0.619 | 0.568 | 0.825 | 0.731
18 | Calu-6 | 1.01 | 0.875 | 0.877 | 0.485 | 0.388 | – | – | – | – | – | 1.05 | 0.924 | 0.866 | 1.16 | 0.986 | – | – | – | – | –
19 | ChaGo-K-1 | – | – | – | – | – | 0.536 | 0.479 | 0.503 | 0.509 | 0.487 | – | – | – | – | – | 0.614 | 0.494 | 0.494 | 0.494 | 0.605
20 | LCLC-103H | – | – | – | – | – | 0.703 | 0.684 | 0.749 | 0.748 | 0.638 | 0.998 | 0.917 | 0.961 | 0.966 | 0.973 | 0.299 | 0.344 | 0.365 | 0.354 | 0.372
21 | NCI-H441 | – | – | – | – | – | 0.268 | 0.257 | 0.205 | 0.234 | 0.21 | 0.694 | – | 0.813 | 0.704 | 0.779 | 1 | 0.715 | 0.838 | 0.742 | 0.513
